Consider 1 compound from ChEMBL document CHEMBL5634121, “Discovery of novel G9a/GLP covalent inhibitors for the treatment of triple-negative breast cancer” (Eur J Med Chem, 2023).

In data set [1] the test system is MDA-MB-231. As to the kind of experiment: Inhibition of colony formation in human MDA-MB-231 cells at 1 to 10 uM refreshed every 4 days for 12 days by crystal violet staining based assay. Type of data set: functional, cell-based. As to conditions: dose 1-10 µM, time 12.0 day.
In data set [2] the test system is MDA-MB-231. As to the kind of experiment: Induction of apoptosis in human MDA-MB-231 cells assessed as viable cells at 20 uM incubated for 72 hrs by Annexin V and PI staining based flow cytometry analysis (reference value: 98.31 %). Particulars: read-out: Activity. The format is functional.
Data set [3] is described as follows: AUC(0 to infinity) in ICR mouse at 2 mg/kg, iv measured upto 12 hrs by LC-MS/MS analysis. The format is ADME, organism-based. Particulars: in vivo.
Data set [4] has as its system MDA-MB-231. As to the kind of experiment: Antiproliferative activity against human MDA-MB-231 cells incubated for 3 to 5 days by MTT assay. Type of data set: functional, cell-based. Particulars: time 3-5 day.
The subject of data set [5] is MDA-MB-231. As to the kind of experiment: Induction of apoptosis in human MDA-MB-231 cells assessed as necrotic cells at 20 uM incubated for 72 hrs by Annexin V and PI staining based flow cytometry analysis (reference value: 0.32 %). Type of data set: functional.
The nature of data set [6]: AUC(0 to t) in ICR mouse at 2 mg/kg, iv measured upto 12 hrs by LC-MS/MS analysis. As to conditions: in vivo. The format is ADME, organism-based.
The test system of data set [7] is MDA-MB-231. The data set is described as follows: Induction of apoptosis in human MDA-MB-231 cells assessed as early apoptotic cells at 20 uM incubated for 72 hrs by Annexin V and PI staining based flow cytometry analysis (reference value: 0.92 %). The format is functional.
Data set [8] deals with MDA-MB-231. The data set is described as follows: Induction of apoptosis in human MDA-MB-231 cells assessed as viable cells at 10 uM incubated for 72 hrs by Annexin V and PI staining based flow cytometry analysis (reference value: 98.31 %). Particulars: read-out: Activity. The format is functional.
Data set [9] deals with T1, Histone-lysine N-methyltransferase EHMT1 (Homo sapiens) (UniProt Q9H9B1).
T1 sequence (whole entry): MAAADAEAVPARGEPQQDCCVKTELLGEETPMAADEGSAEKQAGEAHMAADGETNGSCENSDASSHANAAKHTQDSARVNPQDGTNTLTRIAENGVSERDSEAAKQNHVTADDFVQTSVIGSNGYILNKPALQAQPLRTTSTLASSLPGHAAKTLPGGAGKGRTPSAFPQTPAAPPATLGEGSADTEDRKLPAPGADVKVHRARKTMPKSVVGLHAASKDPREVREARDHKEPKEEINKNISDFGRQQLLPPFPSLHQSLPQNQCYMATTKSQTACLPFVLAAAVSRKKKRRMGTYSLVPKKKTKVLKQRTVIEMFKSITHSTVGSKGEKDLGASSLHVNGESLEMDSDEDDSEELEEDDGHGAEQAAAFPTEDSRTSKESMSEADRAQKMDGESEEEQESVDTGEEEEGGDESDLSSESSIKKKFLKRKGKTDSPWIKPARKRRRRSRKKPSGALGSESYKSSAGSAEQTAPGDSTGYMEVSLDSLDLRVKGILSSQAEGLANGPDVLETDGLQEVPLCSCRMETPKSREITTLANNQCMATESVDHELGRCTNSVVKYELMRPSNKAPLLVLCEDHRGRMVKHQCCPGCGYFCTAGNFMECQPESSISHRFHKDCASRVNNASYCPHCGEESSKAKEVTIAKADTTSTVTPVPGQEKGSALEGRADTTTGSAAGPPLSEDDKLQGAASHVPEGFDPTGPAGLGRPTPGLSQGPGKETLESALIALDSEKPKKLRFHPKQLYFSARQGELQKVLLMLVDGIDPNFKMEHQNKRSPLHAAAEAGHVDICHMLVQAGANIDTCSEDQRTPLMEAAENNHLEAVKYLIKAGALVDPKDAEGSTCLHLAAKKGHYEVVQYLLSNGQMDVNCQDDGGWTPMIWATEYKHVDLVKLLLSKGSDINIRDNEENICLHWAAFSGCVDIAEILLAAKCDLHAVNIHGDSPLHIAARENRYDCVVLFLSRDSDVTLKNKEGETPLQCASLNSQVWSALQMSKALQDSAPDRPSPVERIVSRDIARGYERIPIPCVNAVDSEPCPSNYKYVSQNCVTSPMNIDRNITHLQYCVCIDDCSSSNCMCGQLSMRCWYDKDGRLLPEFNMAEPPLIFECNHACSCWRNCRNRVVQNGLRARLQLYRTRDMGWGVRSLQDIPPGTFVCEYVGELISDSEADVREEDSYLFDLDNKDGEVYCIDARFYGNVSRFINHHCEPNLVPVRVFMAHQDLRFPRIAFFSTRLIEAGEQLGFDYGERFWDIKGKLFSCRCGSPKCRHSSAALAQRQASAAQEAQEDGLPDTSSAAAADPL
As to the kind of experiment: Inhibition of GLP (unknown origin) at 1 uM.

Data set [10] concerns the target T2, Histone-lysine N-methyltransferase EHMT1 (Homo sapiens, UniProt Q9H9B1).
T2 sequence (Q9H9B1 whole entry): T1 sequence (whole entry)
As to the kind of experiment: Inhibition of GLP (unknown origin).

In data set [11] the test system is MDA-MB-231. The data set is described as follows: Antiproliferative activity against human MDA-MB-231 cells at 1 to 5 nM by MTT assay. Type of data set: functional, cell-based. Particulars: dose 1-5 nM, time 3-5 day, TDE = time-dependent effect.
In data set [12] the test system is MDA-MB-231. As to the kind of experiment: Induction of apoptosis in human MDA-MB-231 cells assessed as necrotic cells at 5 uM incubated for 72 hrs by Annexin V and PI staining based flow cytometry analysis (reference value: 0.32 %). The format is functional.
The test system of data set [13] is MDA-MB-231. As to the kind of experiment: Induction of apoptosis in human MDA-MB-231 cells assessed as late apoptotic cells at 5 uM incubated for 72 hrs by Annexin V and PI staining based flow cytometry analysis (reference value: 0.45 %). The format is functional.
The target in data set [14] is Histone-lysine N-methyltransferase EHMT1/EHMT2 (Homo sapiens) (UniProt Q9H9B1+Q96KQ7). The data set is described as follows: Inhibition of G9a/GLP in human MDA-MB-231 cells assessed as reduction in H3K9 dimethylation at 20 uM incubated for 1 day followed by compound washout and measured after 1 to 4 days. The format is cell-based.
Chain of Histone-lysine N-methyltransferase EHMT1/EHMT2 (Homo sapiens) (Q96KQ7 whole entry, looked up, one chain of several): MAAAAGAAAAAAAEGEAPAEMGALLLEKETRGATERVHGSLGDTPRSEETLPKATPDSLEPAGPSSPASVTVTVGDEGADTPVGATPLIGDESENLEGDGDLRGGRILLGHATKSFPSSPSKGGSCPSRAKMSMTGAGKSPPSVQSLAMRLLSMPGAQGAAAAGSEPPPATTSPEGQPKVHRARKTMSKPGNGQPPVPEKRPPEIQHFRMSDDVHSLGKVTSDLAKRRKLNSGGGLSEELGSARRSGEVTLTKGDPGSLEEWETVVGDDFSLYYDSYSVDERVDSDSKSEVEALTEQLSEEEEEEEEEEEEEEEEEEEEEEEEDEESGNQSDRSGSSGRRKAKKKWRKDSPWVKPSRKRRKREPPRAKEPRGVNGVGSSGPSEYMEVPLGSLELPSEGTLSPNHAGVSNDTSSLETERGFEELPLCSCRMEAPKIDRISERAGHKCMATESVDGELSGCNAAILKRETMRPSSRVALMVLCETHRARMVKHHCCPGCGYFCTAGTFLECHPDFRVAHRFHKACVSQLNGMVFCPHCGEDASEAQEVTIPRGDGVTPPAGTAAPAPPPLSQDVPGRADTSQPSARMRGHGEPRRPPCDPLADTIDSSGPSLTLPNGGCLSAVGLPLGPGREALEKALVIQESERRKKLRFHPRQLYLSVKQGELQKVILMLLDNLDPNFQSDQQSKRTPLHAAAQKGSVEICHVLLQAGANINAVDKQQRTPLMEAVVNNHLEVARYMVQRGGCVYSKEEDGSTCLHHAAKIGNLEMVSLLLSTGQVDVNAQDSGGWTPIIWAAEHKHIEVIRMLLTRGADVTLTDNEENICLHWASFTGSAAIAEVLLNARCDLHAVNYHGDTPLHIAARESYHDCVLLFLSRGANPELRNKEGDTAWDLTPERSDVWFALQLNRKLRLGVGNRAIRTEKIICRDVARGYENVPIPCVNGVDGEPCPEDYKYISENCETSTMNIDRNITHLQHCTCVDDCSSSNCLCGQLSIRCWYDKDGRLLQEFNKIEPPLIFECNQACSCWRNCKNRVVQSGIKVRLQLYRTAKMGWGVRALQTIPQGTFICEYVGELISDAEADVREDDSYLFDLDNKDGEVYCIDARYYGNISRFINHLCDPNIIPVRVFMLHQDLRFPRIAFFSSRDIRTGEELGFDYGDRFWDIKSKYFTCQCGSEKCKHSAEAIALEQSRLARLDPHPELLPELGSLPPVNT
Data set [15] concerns MDA-MB-231. As to the kind of experiment: Induction of apoptosis in human MDA-MB-231 cells assessed as early apoptotic cells at 10 uM incubated for 72 hrs by Annexin V and PI staining based flow cytometry analysis (reference value: 0.92 %). Type of data set: functional.
The test system of data set [16] is MDA-MB-231. The data set is described as follows: Induction of apoptosis in human MDA-MB-231 cells assessed as necrotic cells at 10 uM incubated for 72 hrs by Annexin V and PI staining based flow cytometry analysis (reference value: 0.32 %). Type of data set: functional.

Calls of active or inactive are those of the source. No cut-off for these calls is given here.

`C=CC(=O)Nc1cccc(-c2nc(NC3CCN(C)CC3)c3cc(OC)c(OC)cc3n2)c1`: the inhibition entry in data set [1], in data set [9] and in [14] was “Active” each time. The viability at 20 µM in [2] was 39.3%. In addition, the AUC(0-inf) in [3] amounted to 1690 ng·h/mL. The Activity entry in [4] is “Dose-Dependent Effect”; in data set [5], 4.23%; in data set [7], 21.6%; in data set [11], “Tde”; in data set [12], 0.93%; in data set [13], 3.01%. The Activity stood at 3.7% in data set [15] and 1.28% in data set [16]. Also, the area under the curve AUC(0-t) at 12 h in data set [6] was 1650 ng·h/mL. In addition, in data set [8], the viability at 10 µM was found to be 89.1%. In data set [10], this compound registered an IC50 of 458 nM.
